Experimental data published in the NIST ThermoML archive (doi:10.1016/j.jct.2017.05.041).
± gives the expanded uncertainty stated by the source.

Conditions: 293 K; 101.33 kPa; Crystal; X-ray diffraction

| Compound | mass density |
| --- | --- |
| NCC1(CC(=O)O)CCCCC1.O [2-(1-(aminomethyl)cyclohexyl)acetic acid monohydrate] | 1210 ± 12 kg/m3 |
| NCC1(CC(=O)O)CCCCC1 [2-(1-(aminomethyl)cyclohexyl)acetic acid] | 1239 ± 10 kg/m3 |
